From US11208396B2, “Oxime compounds as agonists of the muscarinic M1 and/or M4 receptor” (Heptares Therapeutics Limited, priority 2015, dated 2021)

Columns and labels:
Type in all cases: cell-based
[1] = target: T1, human muscarinic M1 receptor (Homo sapiens, UniProt P11229); assay: Alphascreen Surefire phospho-ERK1/2 functional assay, M1; details: for % Emax cf. ACh, M1 / Emax: Emax compared with ACh; for EC50: read-out: pEC50 M1 (converted); for Emax: CHO, read-out: % Emax cf. ACh, M1, CHO cells stably expressing human M1
T1 sequence (P11229 1-460): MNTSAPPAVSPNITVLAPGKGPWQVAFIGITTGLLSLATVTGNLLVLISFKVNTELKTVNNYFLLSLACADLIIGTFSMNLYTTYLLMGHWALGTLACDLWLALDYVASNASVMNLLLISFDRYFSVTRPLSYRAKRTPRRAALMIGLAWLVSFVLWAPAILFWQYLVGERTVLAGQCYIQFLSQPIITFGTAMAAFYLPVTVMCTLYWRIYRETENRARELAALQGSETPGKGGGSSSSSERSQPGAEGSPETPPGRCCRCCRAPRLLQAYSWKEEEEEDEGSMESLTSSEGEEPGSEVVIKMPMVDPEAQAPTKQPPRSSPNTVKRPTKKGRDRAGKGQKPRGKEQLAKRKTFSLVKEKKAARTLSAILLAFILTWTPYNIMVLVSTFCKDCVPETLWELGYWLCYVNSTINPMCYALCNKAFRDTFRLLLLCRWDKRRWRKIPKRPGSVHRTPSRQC
Procedure: (§1) ERK1/2 phosphorylation is a downstream consequence of both Gq/11 and Gi/o protein coupled receptor activation, making it highly suitable for the assessment of M1, M3 (Gq/11 coupled) and M2, M4 receptors (Gi/o coupled), rather than using different assay formats for different receptor subtypes. CHO cells stably expressing the human muscarinic M1, M2, M3 or M4 receptor were plated (25K/well) onto 96-well tissue culture plates in MEM-alpha+10% dialysed FBS. Once adhered, cells were serum-starved overnight. Agonist stimulation was performed by the addition of 5 μL agonist to the cells for 5 min (37° C.). Media was removed and 50 μL of lysis buffer added. After 15 min, a 4 μL sample was transferred to 384-well plate and 7 μL of detection mixture added. Plates were incubated for 2 h with gentle agitation in the dark and then read on a PHERAstar plate reader.
(§2) pEC50 and Emax figures were calculated from the resulting data for each receptor subtype.

[2] = target: T2, human muscarinic M4 receptor (Homo sapiens, UniProt P08173); assay: Alphascreen Surefire phospho-ERK1/2 functional assay, M4; details: for % Emax cf. ACh, M4 / EC50: CHO cells stably expressing human M4; for % Emax cf. ACh, M4 / Emax: Emax compared with ACh; for EC50: agonist 5 min, 37° C., read-out: pEC50 M4 (converted); for Emax: CHO, read-out: % Emax cf. ACh, M4, CHO cells stably expressing human M4
T2 construct: expressed in transfected cells
T2 sequence (P08173 1-479): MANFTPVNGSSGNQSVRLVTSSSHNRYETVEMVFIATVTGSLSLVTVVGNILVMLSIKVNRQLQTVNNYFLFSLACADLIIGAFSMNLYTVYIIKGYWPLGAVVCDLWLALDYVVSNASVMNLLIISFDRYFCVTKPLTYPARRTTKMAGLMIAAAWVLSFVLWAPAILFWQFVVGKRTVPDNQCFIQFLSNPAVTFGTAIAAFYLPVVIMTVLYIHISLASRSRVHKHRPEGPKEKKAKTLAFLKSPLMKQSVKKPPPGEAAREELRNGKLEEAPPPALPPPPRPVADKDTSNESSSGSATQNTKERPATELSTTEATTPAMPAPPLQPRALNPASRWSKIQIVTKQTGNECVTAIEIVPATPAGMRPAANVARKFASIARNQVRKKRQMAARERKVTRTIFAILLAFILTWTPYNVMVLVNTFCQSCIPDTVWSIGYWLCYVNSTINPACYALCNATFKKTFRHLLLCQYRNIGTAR
Procedure: as §1, §2

[3] = target: T3, human muscarinic M3 receptor (Homo sapiens, UniProt P20309); assay: Alphascreen Surefire phospho-ERK1/2 functional assay, M3; details: for % Emax cf. ACh, M3 / EC50 / pEC50 M3: CHO cells stably expressing human M3; for % Emax cf. ACh, M3 / Emax: Emax compared with ACh; for EC50 / pEC50 M3: agonist 5 min, 37° C.; for EC50: read-out: pEC50 M3 (converted); for Emax: CHO, read-out: % Emax cf. ACh, M3, CHO cells stably expressing human M3
T3 construct: expressed in transfected cells
T3 sequence (P20309 whole entry): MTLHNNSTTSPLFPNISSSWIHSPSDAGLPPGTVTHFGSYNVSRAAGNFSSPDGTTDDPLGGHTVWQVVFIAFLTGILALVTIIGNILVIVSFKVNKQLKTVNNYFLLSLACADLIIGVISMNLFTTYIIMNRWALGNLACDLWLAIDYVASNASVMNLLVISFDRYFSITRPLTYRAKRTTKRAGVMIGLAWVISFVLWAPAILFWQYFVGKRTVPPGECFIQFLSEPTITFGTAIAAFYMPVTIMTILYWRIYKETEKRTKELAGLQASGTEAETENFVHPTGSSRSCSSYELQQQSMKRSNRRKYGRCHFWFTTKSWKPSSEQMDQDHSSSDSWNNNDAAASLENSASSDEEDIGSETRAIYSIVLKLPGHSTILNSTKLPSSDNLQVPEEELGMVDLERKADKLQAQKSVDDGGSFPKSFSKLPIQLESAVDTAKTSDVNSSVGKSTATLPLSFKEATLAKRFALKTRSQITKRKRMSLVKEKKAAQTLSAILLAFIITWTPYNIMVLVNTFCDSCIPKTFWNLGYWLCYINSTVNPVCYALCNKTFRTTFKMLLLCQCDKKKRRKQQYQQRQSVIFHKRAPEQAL
Procedure: as §1, §2

[4] = target: T4, human muscarinic M2 receptor (Homo sapiens, UniProt P08172); assay: Alphascreen Surefire phospho-ERK1/2 functional assay, M2; details: for % Emax cf. ACh, M2 / EC50 / pEC50 M2: CHO cells stably expressing human M2; for EC50 / pEC50 M2: agonist 5 min, 37° C.; for EC50: read-out: pEC50 M2 (converted)
T4 sequence (P08172 1-466): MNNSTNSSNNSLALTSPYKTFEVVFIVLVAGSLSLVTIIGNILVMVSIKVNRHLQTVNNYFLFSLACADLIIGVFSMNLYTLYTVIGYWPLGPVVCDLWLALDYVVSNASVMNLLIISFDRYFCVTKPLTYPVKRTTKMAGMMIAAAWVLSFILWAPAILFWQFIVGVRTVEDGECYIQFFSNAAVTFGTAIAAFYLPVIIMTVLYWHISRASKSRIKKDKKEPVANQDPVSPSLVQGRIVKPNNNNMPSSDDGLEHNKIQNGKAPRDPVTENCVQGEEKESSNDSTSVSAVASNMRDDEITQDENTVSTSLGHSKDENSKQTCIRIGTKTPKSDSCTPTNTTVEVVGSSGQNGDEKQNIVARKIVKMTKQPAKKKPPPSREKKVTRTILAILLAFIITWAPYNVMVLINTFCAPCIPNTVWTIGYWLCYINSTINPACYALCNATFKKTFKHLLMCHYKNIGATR
Procedure: as §1, §2

[5] = CHO cells stably expressing human M1
[6] = CHO cells stably expressing human M1, agonist 5 min, 37° C.

| Compound | % Emax cf. ACh, M1 [1, 5] | EC50 [1, 6] | % Emax cf. ACh, M4 [2] | EC50 [2] | % Emax cf. ACh, M3 [3] | EC50 [3] | % Emax cf. ACh, M2 ([4]; Emax compared with ACh) | EC50 [4] | pEC50 M3 [3] | pEC50 M2 [4] | Emax [1] | Emax [2] | Emax [3] | Emax ([4]; CHO, read-out: % Emax cf. ACh, M2, CHO cells stably expressing human M2, Emax compared with ACh) | pEC50 M1 [1, 6] |
| --- | --- | --- | --- | --- | --- | --- | --- | --- | --- | --- | --- | --- | --- | --- | --- |
| CCOC(=O)N1CCC2(CC(N3CCC(C(CC)=NOC)CC3)C2)C1 (single isomer, unassigned) [2-2 Isomer 3] | 5% | > 20000 nM | 67% | 50.1 nM | 2% | > 20000 nM | 7% | > 20000 nM | – | – | – | – | – | – | – |
| CCOC(=O)N1CCC2(CC(N3CCC(C(CC)=NOC)CC3)C2)C1 (single isomer, unassigned) [2-2 Isomer 4] | 59% | 200 nM | 105% | 20 nM | 18% | – | 69% | – | < 4.7 | < 4.7 | – | – | – | – | – |
| CCOC(=O)N1CCC[C@H](N2CCC(C(CC)=NOC)CC2)CC1 (single isomer, unassigned) [(S)-1-2 Isomer 1] | – | > 20000 nM | – | 63.1 nM | – | > 20000 nM | 11% | > 20000 nM | – | – | 21% | 81% | 9% | – | – |
| CCOC(=O)N1CCCC(N2CCC(C(CC)=NOC(C)C)CC2)CC1 (single isomer, unassigned) [1-12 Isomer 1 (racemic)] | 98% | 100 nM | 80% | 63.1 nM | 6% | > 20000 nM | 5% | > 20000 nM | – | – | – | – | – | – | – |
| CCCC(=NOC)C1CCN(C2CCCN(C(=O)OCC)CC2)CC1 (single isomer, unassigned) [1-3 Isomer 1 (racemic)] | – | 316 nM | – | 25.1 nM | – | – | – | – | – | – | 106% | 85% | – | – | – |
| CCOC(=O)N1CCCC(N2CCC(C(=NOC)C(C)C)CC2)CC1 (single isomer, unassigned) [1-4 Isomer 1 (racemic)] | – | 398 nM | – | 50.1 nM | – | > 20000 nM | 24% | > 20000 nM | – | – | 87% | 115% | 5% | – | – |
| CCOC(=O)N1CCCC(N2CCC(C(CC)=NOC)CC2)CC1 (single isomer, unassigned) [1-2 Isomer 2 (racemic)] | 83% | 398 nM | 94% | 25.1 nM | 1% | – | 7% | – | < 4.7 | < 4.7 | – | – | – | – | – |
| CCCON=C(C)C1CCN(C2CCCN(C(=O)OCC)CC2)CC1 (single isomer, unassigned) [1-8 Isomer 2 (racemic)] | 85% | 316 nM | 50% | 316 nM | – | – | – | – | – | – | – | – | – | – | – |
| CCCC(=NOC)C1CCN(C2CCCN(C(=O)OCC)CC2)CC1 (single isomer, unassigned) [1-3 Isomer 2 (racemic)] | 92% | 63.1 nM | 83% | 50.1 nM | – | > 20000 nM | – | > 20000 nM | – | – | – | – | 17% | 21% | – |
| CCON=C(C)C1CCN(C2CCCN(C(=O)OCC)CC2)CC1 (single isomer, unassigned) [1-7 Isomer 2 (racemic)] | 66% | 501 nM | 62% | 251 nM | – | – | – | – | – | – | – | – | – | – | – |
| CCCON=C(CC)C1CCN(C2CCCN(C(=O)OCC)CC2)CC1 (single isomer, unassigned) [1-11 Isomer 1 (racemic)] | – | 251 nM | 72% | 126 nM | – | – | – | – | – | – | 107% | – | – | – | – |
| CCCON=C(C)C1CCN(C2CCCN(C(=O)OCC)CC2)CC1 (single isomer, unassigned) [1-8 Isomer 1 (racemic)] | – | 794 nM | – | 794 nM | – | – | – | – | – | – | 65% | 46% | – | – | – |
| CCON=C(C)C1CCN(C2CCCN(C(=O)OCC)CC2)CC1 (single isomer, unassigned) [1-7 Isomer 1 (racemic)] | – | 631 nM | – | 631 nM | – | – | – | – | – | – | 48% | 52% | – | – | – |
| CCOC(=O)N1CCCC(N2CCC(C(=NOC)NCC(C)C)CC2)CC1 (racemic) [3-1 Mixture of isomers] | – | 251 nM | – | 398 nM | – | – | – | – | – | – | 136% | 56% | – | – | – |
| CCOC(=O)N1CCCC(N2CCC(C(C)=NOC(C)C)CC2)CC1 (single isomer, unassigned) [1-9 Isomer 1 (racemic)] | – | 631 nM | 0% | > 20000 nM | – | – | – | – | – | – | 57% | – | – | – | – |
| CCOC(=O)N1CCCC(N2CCC(C(C)=NOC(C)C)CC2)CC1 (single isomer, unassigned) [1-9 Isomer 2 (racemic)] | 46% | – | 81% | 398 nM | – | – | – | – | – | – | – | – | – | – | 6.2 |
| CCOC(=O)N1CCC[C@H](N2CCC(C(C)=NOC)CC2)CC1 (single isomer, unassigned) [(S)-1-1 Isomer 1] | – | 631 nM | 31% | 200 nM | – | – | – | – | – | – | 47% | – | – | – | – |
